Laboratory results reported in article PMC3792137, “NMK-TD-100, a Novel Microtubule Modulating Agent, Blocks Mitosis and Induces Apoptosis in HeLa Cells by Binding to Tubulin” (PLoS ONE, 2013).

Molecular target: T1, tubulin (alpha/beta heterodimer)
T1 construct: tubulin purified from goat brain; with alpha-tubulin/beta-tubulin heterodimer
Assay: Ligand fluorescence enhancement titration (Scatchard, Job plot […]); tryptophan quenching gave Kd […]; polymerization IC50 […]
Format: binding, Capra hircus

Kd: 1260 ± 320 nM
Structure (SMILES): COc1cc(-c2nnc(-c3c[nH]c4ccccc34)s2)cc(OC)c1OC [NMK-TD-100]
